# In US10092551B2, “Spiro-thiazolones” (Hoffmann-La Roche Inc., priority 2014, dated 2018):
# Target: human V1a receptor (Homo sapiens (Human), UniProt P37288)
# Assay: human V1a receptor binding studies (3H-Vasopressin, SPA beads)
# Conditions: membranes of HEK293 cells transiently transfected with human V1a receptor, Ki by Cheng-Prussoff
# Method in brief: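 Membranes from HEK293 cells transiently expressing cloned human V1a receptor, bound on yttrium silicate SPA beads with 4 nM 3H-vasopressin (added stock) and serially diluted compound, 1 h at room temperature. Non-specific binding defined with cold vasopressin; IC50 by non-linear regression, Ki via Cheng-Prusoff.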
# human V1a receptor, sequence (P37288 whole entry): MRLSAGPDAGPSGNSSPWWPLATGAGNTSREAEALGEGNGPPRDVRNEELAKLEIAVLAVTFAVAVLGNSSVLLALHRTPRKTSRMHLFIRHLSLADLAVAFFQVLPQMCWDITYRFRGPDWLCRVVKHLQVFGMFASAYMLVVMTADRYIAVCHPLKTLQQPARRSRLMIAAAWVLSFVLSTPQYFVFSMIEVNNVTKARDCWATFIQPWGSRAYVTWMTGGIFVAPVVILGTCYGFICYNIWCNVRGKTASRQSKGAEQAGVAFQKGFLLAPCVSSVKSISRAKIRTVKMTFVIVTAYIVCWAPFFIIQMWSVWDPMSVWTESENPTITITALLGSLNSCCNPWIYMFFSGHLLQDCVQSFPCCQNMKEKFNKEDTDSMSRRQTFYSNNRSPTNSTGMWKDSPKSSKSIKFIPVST
row,pKi hV1a,Structure (SMILES)
1,8.8,"[2H]C([2H])([2H])/C(=C1/SC(N2CCC3(CC2)OCc2ccccc23)=NC1=O)c1ccccc1 [Example 173, (5Z)-5-[1-phenyl(^2H3)ethylidene]-2-(1′H,3H-spiro[2-benzofuran-1,4′-piperidin]-1′-yl)-1,3-thiazol-4(5H)-one]"
2,7.1,"O=C1N=C(N2CCC3(CC2)OCc2ccccc23)S/C1=C\c1cccnc1 [Example 94, 5-(pyridin-3-ylmethylidene)-2-(1′H,3H-spiro[2-benzofuran-1,4′-piperidin]-1′-yl)-1,3-thiazol-4(5H)-one]"
3,7.5,"O=C1N=C(N2CCC3(CC2)OCc2ccccc23)S/C1=C1/CCc2cc(O)ccc21 [Example 54, (5E/Z)-5-(5-hydroxy-2,3-dihydro-1H-inden-1-ylidene)-2-(1′H,3H-spiro[2-benzofuran-1,4′-piperidin]-1′-yl)-1,3-thiazol-4(5H)-one]"
4,7.9,"C/C(=C1/SC(N2CCC3(CC2)OCc2ncccc23)=NC1=O)c1ccc(Cl)nc1 [Example 162, (5E/Z)-5-[1-(6-chloropyridin-3-yl)ethylidene]-2-(1′H,7H-spiro[furo[3,4-b]pyridine-5,4′-piperidin]-1′-yl)-1,3-thiazol-4(5H)-one]"
5,8.5,"C/C(=C1/SC(N2CCC3(CC2)OCc2ccccc23)=NC1=O)c1ccccc1 [Example 16, (5E/Z)-5-(1-phenylethylidene)-2-(1′H,3H-spiro[2-benzofuran-1,4′-piperidin]-1′-yl)-1,3-thiazol-4(5H)-one]"
6,7.7,"O=C1N=C(N2CCC3(CC2)OCc2ccccc23)S/C1=C1/CCCc2c(Cl)cccc21 [Example 19, (5E/Z)-5-(5-chloro-3,4-dihydronaphthalen-1(2H)-ylidene)-2-(1′H,3H-spiro[2-benzofuran-1,4′-piperidin]-1′-yl)-1,3-thiazol-4(5H)-one]"
